The target of assay [1] is T1, isolated recombinant SARS-CoV-2 M^pro (Severe acute respiratory syndrome coronavirus 2, UniProt P0DTD1). Briefly: SPE-MS SARS-CoV-2 Mpro inhibition assay. As to conditions: for IC50: SPE-MS, SARS-CoV-2 M^pro 0.05 μM, substrate peptide 2.0 μM, mean ± SD of two independent runs (n = 2); for fold increase in M^pro inhibition potency relative to γ-lactam 7: relative to 7; for fold more efficient M^pro inhibition than γ-lactam 5: relative to reported γ-lactam 5; for fold more efficient M^pro inhibition than pyrazolidinone 6: relative to reported pyrazolidinone 6. The assay is classed as biochemical.

The target in assay [2] is T1, isolated recombinant SARS-CoV-2 M^pro. The assay is classed as binding. To be noted: for covalent reaction with M^pro (protein-observed MS): M^pro 3.0 μM, γ-lactam 15 μM, 20 mM HEPES pH 7.5, 4 h incubation.
Assay [3] relates to M^pro. To be noted: mass spectrometric analyses; cited from earlier work.
For assay [4], the target named is T1, isolated recombinant SARS-CoV-2 M^pro. On the set-up: method as in PMID 35549342. As to conditions: cited from earlier work; for IC50: reported M^pro inhibition.
For assay [5], the system named is M^pro. Further details: method as in PMID 37866713. As to conditions: reported M^pro inhibition; cited from earlier work.

SMILES strings stand for the structures. Like-named read-outs stand apart in the source and are kept apart here. A value given as a limit tells only on which side of the number the result lay.

As for `CC(C)C1C(=O)N(S(C)(=O)=O)c2sccc21` (racemic) [16c], the IC50 – broadly, the concentration that gives 50% inhibition – in assay [1] (read-out: IC50) is roughly 16 µM. The “fold less efficient M^pro inhibition than 16b” value in assay [1] (relative to propyl-substituted 16b) is listed as roughly 5 fold.

In the case of `CS(=O)(=O)N1C(=O)C(Cc2ccccc2)c2ccsc21` (racemic) [16d], the IC50 in assay [1] (read-out: IC50) was roughly 4 µM.

For the compound `CS(=O)(=O)N1C(=O)C(CCC#N)c2ccsc21` (racemic) [16e], the IC50 in assay [1] (read-out: IC50) was roughly 2.7 µM. `C=CCC1C(=O)N(S(C)(=O)=O)c2sccc21` (racemic) [16f]: the IC50 in assay [1] (read-out: IC50) was roughly 3.5 µM. As for `CS(=O)(=O)N1C(=O)C(CCC#N)c2ccsc21` (racemic) [C00007], the IC50 in assay [1] (read-out: IC50) was determined as 2.7 ± 0.1 µM. For the compound `C=CCC1C(=O)N(S(C)(=O)=O)c2sccc21` (racemic) [C00009], the IC50 in assay [1] (read-out: IC50) turned out to be 3.5 ± 0.2 µM. Take `CC(C)C1C(=O)N(S(C)(=O)=O)c2sccc21` (racemic) [C00012]: the IC50 in assay [1] (read-out: IC50) was 16 ± 2 µM. The same measure, in the same setting: in the case of `CS(=O)(=O)N1C(=O)C(Cc2ccccc2)c2ccsc21` (racemic) [C00014] it was 4 ± 0.4 µM. In the case of `CC1C(=O)N(S(C)(=O)=O)c2sccc21` (stereo not drawn) [16a], the “complex observed after adding excess 24 to the M^pro:16a mixture (reversibility)” value in assay [2] (16a with M^pro 2 h at 0 °C (1 : 5), then 24 for 3 h at 0 °C, SPE-MS) was “not detected”. Besides, in assay [2] (M^pro 3.0 μM pre-reacted with 24, then 16a 15 μM, 2 h), the “covalent reaction with the covalent M^pro:nirmatrelvir alkyne (24) complex (Cys145 blocked)” value is given as “does not covalently react”. Moreover, the “covalent reaction with M^pro (protein-observed MS)” value in assay [2] is listed as “react covalently”. For the same compound, in assay [1], the “fold increase in M^pro inhibition potency relative to γ-lactam 7” value is on record as roughly 2 fold. On to `CCCC1C(=O)N(S(C)(=O)=O)c2sccc21` (stereo not drawn) [16b], for which the “covalent reaction with M^pro (protein-observed MS)” value in assay [2] was “react covalently”. In the case of `CC1(C)C(=O)N(S(C)(=O)=O)c2sccc21` [17a], in assay [1], the IC50 entry is given as “did not inhibit”. Same read-out and setting: in the case of `C=CCC1(CC=C)C(=O)N(S(C)(=O)=O)c2sccc21` [17b] it was “did not inhibit”; in that of `CC(=O)N1C(=O)Cc2ccsc21` [23a], “ablated M^pro inhibition”. In the case of `O=C1Cc2ccsc2N1S(=O)(=O)Cc1ccccc1` [23b], the “covalent reaction with M^pro (protein-observed MS)” value in assay [2] was “react covalently”. Also, the “fold increase in M^pro inhibition potency relative to γ-lactam 7” value in assay [1] is on record as roughly 2 fold. On to `O=C1Cc2ccsc2N1S(=O)(=O)c1ccccc1` [23c], for which the “fold increase in M^pro inhibition potency relative to γ-lactam 7” value in assay [1] is given as roughly 2 fold. As for `COc1ccc(S(=O)(=O)N2C(=O)Cc3ccsc32)cc1` [23d], the “covalent reaction with M^pro (protein-observed MS)” value in assay [2] is reported as “react covalently”. Turning to `O=C1Cc2ccsc2N1S(=O)(=O)c1ccc(C(F)(F)F)cc1` [23f], the IC50 in assay [1] (read-out: IC50) is roughly 1.3 µM. In addition, in assay [1], the “fold increase in M^pro inhibition potency relative to γ-lactam 7” value is listed as roughly 6 fold and the “fold more efficient M^pro inhibition than γ-lactam 5” value was roughly 20 fold. The “fold more potent than γ-lactam 23c” value in assay [1] (relative to 23c) is roughly 3 fold. Also, the “fold more efficient M^pro inhibition than β-lactam 3” value in assay [1] (relative to reported β-lactam 3) was roughly 6 fold. For the compound `CS(=O)(=O)N1C(=O)Cc2ccsc21` [C00001], the IC50 in assay [1] (read-out: IC50) is 8.5 ± 1.4 µM.

`CS(=O)(=O)N1C(=O)Cc2sccc21` [C00002]: the IC50 in assay [1] (read-out: IC50) was 8.4 ± 0.5 µM. On to `CS(=O)(=O)N1C(=O)Cc2cscc21` [C00003], for which the IC50 in assay [1] (read-out: IC50) was greater than 100 µM.

For `CS(=O)(=O)n1c(=O)n(S(C)(=O)=O)c2cscc21` [C00004], the IC50 in assay [1] (read-out: IC50) is greater than 100 µM.

As to `CS(=O)(=O)N1C(=O)Cc2ccccc21` [C00005], the IC50 in assay [1] (read-out: IC50) is greater than 100 µM. Regarding `CC1C(=O)N(S(C)(=O)=O)c2sccc21` (stereo not drawn) [C00006], the IC50 in assay [1] (read-out: IC50) was 3.9 ± 0.1 µM. With `CC1(C)C(=O)N(S(C)(=O)=O)c2sccc21` [C00008], in assay [1] (read-out: IC50), the 50% inhibitory concentration (IC50) is greater than 100 µM. The same measure, in the same setting: in the case of `CCCC1C(=O)N(S(C)(=O)=O)c2sccc21` (stereo not drawn) [C00010] it was 3.2 ± 0.8 µM; in that of `C=CCC1(CC=C)C(=O)N(S(C)(=O)=O)c2sccc21` [C00011], greater than 100 µM; in that of `CS(=O)(=O)N1C(=O)C2(CC=CC2)c2ccsc21` [C00013], 61 ± 4 µM. Regarding `CS(=O)(=O)N1C(=O)C2(CC=CC2)c2sccc21` [C00015], the IC50 in assay [1] (read-out: IC50) was greater than 100 µM. For `CS(=O)(=O)N1C(=O)Cc2ccsc21` [C00017], in assay [1] (read-out: IC50), the IC50 came out at 8.5 ± 1.4 µM. On the same count and under the same terms, in the case of `CC(=O)N1C(=O)Cc2ccsc21` [C00018] it was greater than 100 µM; in that of `O=C1Cc2ccsc2N1S(=O)(=O)Cc1ccccc1` [C00019], 4.3 ± 0.1 µM; in that of `O=C1Cc2ccsc2N1S(=O)(=O)c1ccccc1` [C00020], 4.7 ± 1.1 µM. In the case of `COc1ccc(S(=O)(=O)N2C(=O)Cc3ccsc32)cc1` [C00021], the IC50 in assay [1] (read-out: IC50) is 2.7 ± 0.2 µM. Same read-out and setting: in the case of `O=C1Cc2ccsc2N1S(=O)(=O)c1ccc([N+](=O)[O-])cc1` [C00022] it was 4.4 ± 0.7 µM. The same measure, in the same setting: in the case of `O=C1Cc2ccsc2N1S(=O)(=O)c1ccc(C(F)(F)F)cc1` [C00023] it was 1.3 ± 0.1 µM. For `CC1(C)C(C(=O)OCc2ccccc2)N2C(=O)C(NC(=O)COc3ccccc3)C2S1(=O)=O` (stereo not drawn) [compound 3, penicillin V sulfone benzyl ester], the “covalent reaction with M^pro (reported)” value in assay [3] was “covalent reaction of its β-lactam with the active site Cys145”. In assay [4], the IC50 was roughly 6.6 µM. As for `CC1(C)C(C(=O)OCc2ccccc2)N2C(=O)C(NC(=O)COc3ccccc3)CC2S1(=O)=O` (stereo not drawn) [compound 5], the “covalent reaction with M^pro (reported)” value in assay [3] is reported as “did not react to form a stable acyl–enzyme complex”. In addition, the “fold less efficient M^pro inhibition than β-lactam 3” value in assay [4] (relative to β-lactam 3) is given as roughly 4 fold. Further, in assay [4], the IC50 was roughly 26.1 µM. Regarding `O=C(O)C1=C(C(=O)N(Cc2ccccc2)Cc2ccccc2)CN2C[C@H](NC(=O)[C@H](Cc3ccccc3)NC(=O)c3cc4ccccc4[nH]3)C(=O)N12` [compound 6], the half-inhibitory concentration (IC50) in assay [5] is roughly 45 µM.

In the case of `CS(=O)(=O)N1C(=O)Cc2ccsc21` [compound 7], the “covalent reaction with M^pro (protein-observed MS)” value in assay [2] is listed as “react covalently”. The half-inhibitory concentration (IC50) in assay [1] (read-out: IC50) is roughly 8.5 µM. Besides, in assay [1], the “fold more efficient M^pro inhibition than pyrazolidinone 6” value was roughly 5 fold and the “fold more efficient M^pro inhibition than γ-lactam 5” value was roughly 3 fold.

As for `CS(=O)(=O)N1C(=O)Cc2sccc21` [compound 8], in assay [2], the “covalent reaction with M^pro (protein-observed MS)” value was “react covalently”. In addition, in assay [1] (read-out: IC50), the IC50 was roughly 8.4 µM. In assay [1], the “fold more efficient M^pro inhibition than pyrazolidinone 6” value is given as roughly 5 fold and the “fold more efficient M^pro inhibition than γ-lactam 5” value is recorded as roughly 3 fold. Regarding `CS(=O)(=O)N1C(=O)Cc2cscc21` [compound 9], in assay [1], the IC50 result is “did not inhibit”. On the same count and under the same terms, then `CS(=O)(=O)n1c(=O)n(S(C)(=O)=O)c2cscc21` [compound 10], with “did not result in inhibition”; and `CS(=O)(=O)N1C(=O)Cc2ccccc21` [compound 11], with “did not inhibit”. On the same count and under the same terms, then `CS(=O)(=O)N1C(=O)C2(CC=CC2)c2ccsc21` [compound 18], with “did not efficiently inhibit”. `CS(=O)(=O)N1C(=O)C2(CC=CC2)c2sccc21` [compound 19]: the IC50 result in assay [1] is recorded as “did not efficiently inhibit”.

These data come from article PMC11110133, “Thiophene-fused γ-lactams inhibit the SARS-CoV-2 main protease via reversible covalent acylation” (Chemical Science, 2024).
